Laboratory results taken from patent publication US9988400B2 (Genentech, Inc., priority 2013, dated 2018).

Target: T1, HEK cells stably transfected with tetracycline inducible hNR1 and hNR2A (Homo sapiens, UniProt Q05586+Q12879)
T1 construct: expressed in transfected cells; host or cells: HEK cells, stably transfected, tetracycline/doxycycline inducible
Assay: Assay 1: Cell-Based Assay, cytosolic calcium response to positive allosteric modulators (with 30 μM glycine and 300 nM L-glutamate, EC30)
Details: for EC50: cytosolic calcium response, with 30 μM glycine and 300 nM L-glutamate (EC30), — = no plateau was reached; for Max %: responses scaled relative to 100 μM L-glutamate maximal response (100%) and 0 μM L-glutamate (0%)
Summary of the method: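 Cells induced 24 h with 7.5 μg mL^−1 doxycycline plus 500 μM (+)-ketamine, loaded 60 min at 37 °C with calcium dye in Mg-free HBSS (1.8 mM Ca, probenecid, 10 μM (+)-ketamine, pH 7.15). Peak RFU over 5 min after compound addition, scaled to 100 μM L-glutamate (100%) and 0 μM (0%); four-parameter Hill fit for EC50, max % if no plateau.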

T1 sequence (Q12879 23-1464, other chains not shown): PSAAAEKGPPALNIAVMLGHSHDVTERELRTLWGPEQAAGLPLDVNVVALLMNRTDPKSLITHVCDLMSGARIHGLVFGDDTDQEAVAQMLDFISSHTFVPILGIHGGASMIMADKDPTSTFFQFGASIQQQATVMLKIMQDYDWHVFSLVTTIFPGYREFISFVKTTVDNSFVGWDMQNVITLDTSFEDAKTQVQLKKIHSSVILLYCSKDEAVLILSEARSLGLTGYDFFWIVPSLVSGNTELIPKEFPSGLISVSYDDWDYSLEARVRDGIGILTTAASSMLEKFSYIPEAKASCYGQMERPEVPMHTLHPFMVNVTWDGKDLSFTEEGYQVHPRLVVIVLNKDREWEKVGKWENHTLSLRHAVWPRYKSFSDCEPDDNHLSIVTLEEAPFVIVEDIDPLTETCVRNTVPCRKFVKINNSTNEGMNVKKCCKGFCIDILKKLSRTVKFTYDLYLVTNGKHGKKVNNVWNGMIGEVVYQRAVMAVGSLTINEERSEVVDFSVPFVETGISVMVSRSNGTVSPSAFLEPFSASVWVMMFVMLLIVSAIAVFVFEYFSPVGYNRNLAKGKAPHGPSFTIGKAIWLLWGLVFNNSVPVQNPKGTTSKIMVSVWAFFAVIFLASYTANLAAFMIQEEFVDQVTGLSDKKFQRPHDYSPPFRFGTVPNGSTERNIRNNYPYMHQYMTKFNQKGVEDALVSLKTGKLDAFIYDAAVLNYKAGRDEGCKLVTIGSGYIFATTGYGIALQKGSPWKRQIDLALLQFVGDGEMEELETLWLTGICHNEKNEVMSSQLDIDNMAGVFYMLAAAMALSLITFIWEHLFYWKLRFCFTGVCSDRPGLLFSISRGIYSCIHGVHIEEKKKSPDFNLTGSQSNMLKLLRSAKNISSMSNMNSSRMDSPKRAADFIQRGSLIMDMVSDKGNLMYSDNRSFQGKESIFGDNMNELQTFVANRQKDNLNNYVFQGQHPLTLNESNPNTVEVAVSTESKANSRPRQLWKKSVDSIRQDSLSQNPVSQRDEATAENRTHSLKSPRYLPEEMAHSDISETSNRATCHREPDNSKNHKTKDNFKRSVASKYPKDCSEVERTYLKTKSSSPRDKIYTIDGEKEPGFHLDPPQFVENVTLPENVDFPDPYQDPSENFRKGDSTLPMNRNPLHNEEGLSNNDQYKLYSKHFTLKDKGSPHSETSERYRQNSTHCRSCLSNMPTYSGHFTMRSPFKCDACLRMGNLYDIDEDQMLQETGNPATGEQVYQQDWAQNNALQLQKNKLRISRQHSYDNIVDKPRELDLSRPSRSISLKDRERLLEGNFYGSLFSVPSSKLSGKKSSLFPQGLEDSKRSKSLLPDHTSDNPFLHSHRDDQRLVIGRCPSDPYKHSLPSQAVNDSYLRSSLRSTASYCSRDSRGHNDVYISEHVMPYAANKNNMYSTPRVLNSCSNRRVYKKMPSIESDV

Compound | EC50 (Table 3) | Max % (Table 2) | EC50 (Table 2)
Cc1sc2nc(Cn3nc(C(F)(F)F)cc3Cl)cc(=O)n2c1C#N [compound 114, 7-[[5-chloro-3-(trifluoromethyl)pyrazol-1-yl]methyl]-2-methyl-5-oxo-thiazolo[3,2-a]pyrimidine-3-carbonitrile] | 1340 nM | – | –
CNC(=O)c1c(C)sc2nc(Cc3cccc(OC(F)(F)F)c3)cc(=O)n12 [Example 21.49, N,2-dimethyl-5-oxo-7-[[3-(trifluoromethoxy)phenyl]methyl]thiazolo[3,2-a]pyrimidine-3-carboxamide] | – | 82.3% | –
CCNC(=O)c1c(C)sc2nc(Cc3cc(F)ccc3Cl)cc(=O)n12 [Example 21.32, 7-(2-chloro-5-fluorobenzyl)-N-ethyl-2-methyl-5-oxo-5H-thiazolo[3,2-a]pyrimidine-3-carboxamide] | – | 84.3% | –
CCNC(=O)c1c(C)sc2nc(Cc3cc(F)ccc3C(F)(F)F)cc(=O)n12 [Example 21.34, N-ethyl-7-(5-fluoro-2-(trifluoromethyl)benzyl)-2-methyl-5-oxo-5H-thiazolo[3,2-a]pyrimidine-3-carboxamide] | – | 79.9% | –
Cc1sc2nc(Cn3ccc(C(F)(F)F)n3)cc(=O)n2c1C(C)(C)O [Example 18.4, 3-(2-hydroxypropan-2-yl)-2-methyl-7-((3-(trifluoromethyl)-1H-pyrazol-1-yl)methyl)-5H-thiazolo[3,2-a]pyrimidin-5-one] | – | 127% | –
Cc1sc2nc(Cn3nc(C(F)(F)F)cc3CCO)cc(=O)n2c1[C@@H]1C[C@H]1CO (relative stereo) [Example 15.7, 7-[[5-(2-hydroxyethyl)-3-(trifluoromethyl)-1H-pyrazol-1-yl]methyl]-3-[trans-2-(hydroxymethyl)cyclopropyl]-2-methyl-5H-[1,3]thiazolo[3,2-a]pyrimidin-5-one] | – | 158% | 826 nM
CCN(Cc1cc(=O)n2c(C3CCCC3)c(C)sc2n1)c1ccc(F)cc1 [Example 9.3, 3-cyclopentyl-7-[(N-ethyl-4-fluoro-anilino)methyl]-2-methyl-thiazolo[3,2-a]pyrimidin-5-one] | – | 108% | 7000 nM
CNC(=O)c1c(C)sc2nc(Cc3ccc(F)c(F)c3)cc(=O)n12 [Example 21.54, 7-[(3,4-difluorophenyl)methyl]-N,2-dimethyl-5-oxo-thiazolo[3,2-a]pyrimidine-3-carboxamide] | – | 46% | –
CCN(Cc1cc(=O)n2c(CCC(N)=O)c(C)sc2n1)c1ccc(F)cc1 [Example 13.6, 3-(7-[[ethyl(4-fluorophenyl)amino]methyl]-2-methyl-5-oxo-5H-[1,3]thiazolo[3,2-a]pyrimidin-3-yl)propanamide] | – | 125% | 1400 nM
CCN(Cc1cc(=O)n2c(-c3ccco3)c(C)sc2n1)c1ccc(F)cc1 [Example 5.45, 7-((ethyl(4-fluorophenyl)amino)methyl)-3-(furan-2-yl)-2-methyl-5H-thiazolo[3,2-a]pyrimidin-5-one] | – | 139% | 214 nM
CCN(Cc1cc(=O)n2c(-c3cncnc3)c(C)sc2n1)c1ccc(F)cc1 [Example 5.1, 7-[(N-ethyl-4-fluoro-anilino)methyl]-2-methyl-3-pyrimidin-5-yl-thiazolo[3,2-a]pyrimidin-5-one] | – | 145.1% | 560 nM
CCNC(=O)c1c(C)sc2nc(Cn3nc(C(F)(F)F)cc3C)cc(=O)n12 [compound 26, N-ethyl-2-methyl-7-[[5-methyl-3-(trifluoromethyl)pyrazol-1-yl]methyl]-5-oxo-thiazolo[3,2-a]pyrimidine-3-carboxamide] | 4820 nM | – | –
CNC(=O)Cc1c(C)sc2nc(Cn3nc(C(F)(F)F)cc3Cl)cc(=O)n12 [compound 98, 2-[7-[[5-chloro-3-(trifluoromethyl)pyrazol-1-yl]methyl]-2-methyl-5-oxo-thiazolo[3,2-a]pyrimidin-3-yl]-N-methyl-acetamide] | 1570 nM | – | –
N#CC1CC1c1c(Cl)sc2nc(Cn3nc(Cl)cc3C(F)(F)F)cc(=O)n12 (stereo not drawn) [compound 268, 2-[2-chloro-7-[[3-chloro-5-(trifluoromethyl)pyrazol-1-yl]methyl]-5-oxo-thiazolo[3,2-a]pyrimidin-3-yl]cyclopropanecarbonitrile] | 182 nM | – | –
Cc1sc2nc(COc3cccc(F)c3)cc(=O)n2c1[C@@H]1C[C@H]1CO (relative stereo) [Example 4.4, 7-((3-fluorophenoxy)methyl)-3-(trans-2-(hydroxymethyl)cyclopropyl)-2-methyl-5H-thiazolo[3,2-a]pyrimidin-5-one] | – | 138% | 2500 nM
N#Cc1cccc(Cc2cc(=O)n3c(C4CC4C(F)(F)F)c(C(F)(F)F)sc3n2)c1F (stereo not drawn) [compound 88, 2-fluoro-3-[[5-oxo-2-(trifluoromethyl)-3-[2-(trifluoromethyl)cyclopropyl]thiazolo[3,2-a]pyrimidin-7-yl]methyl]benzonitrile] | 3700 nM | – | –

Compound | EC50 (Table 3) | Max % (Table 2) | EC50 (Table 2)
Cc1sc2nc(COc3ccc(F)cc3)cc(=O)n2c1C(=O)C1COC1 [Example 2.9, 7-((4-fluorophenoxy)methyl)-2-methyl-3-(oxetane-3-carbonyl)-5H-thiazolo[3,2-a]pyrimidin-5-one] | – | 56.4% | –
O=c1cc(Cn2nc(Cl)cc2C(F)(F)F)nc2sc3c(n12)CCC3 [compound 90] | 1220 nM | – | –
Cc1sc2nc(Oc3cccc(C(F)(F)F)c3)c(F)c(=O)n2c1C1CC1CO (stereo not drawn) [compound 34, 6-fluoro-3-[2-(hydroxymethyl)cyclopropyl]-2-methyl-7-[3-(trifluoromethyl)phenoxy]thiazolo[3,2-a]pyrimidin-5-one] | 24500 nM | – | –
N#Cc1cccc(Cc2cc(=O)n3c(C4CC4C(F)(F)F)c(C(F)(F)F)sc3n2)c1F (stereo not drawn) [compound 146, 2-fluoro-3-[[5-oxo-2-(trifluoromethyl)-3-[2-(trifluoromethyl)cyclopropyl]thiazolo[3,2-a]pyrimidin-7-yl]methyl]benzonitrile] | 156 nM | – | –
CNC(=O)c1c(C(F)(F)F)sc2nc(Cn3nc(Cl)cc3C(F)(F)F)cc(=O)n12 [compound 56, 7-[[3-chloro-5-(trifluoromethyl)pyrazol-1-yl]methyl]-N-methyl-5-oxo-2-(trifluoromethyl)thiazolo[3,2-a]pyrimidine-3-carboxamide] | 2270 nM | – | –
CCC(=O)c1c(C)sc2nc(Cn3nc(Cl)cc3C(F)(F)F)cc(=O)n12 [compound 141, 7-[[3-chloro-5-(trifluoromethyl)pyrazol-1-yl]methyl]-2-methyl-3-propanoyl-thiazolo[3,2-a]pyrimidin-5-one] | 328 nM | – | –
Cc1sc2nc(Cn3nc(C(F)(F)F)cc3Cl)cc(=O)n2c1C(C)(C)O [compound 108, 7-[[5-chloro-3-(trifluoromethyl)pyrazol-1-yl]methyl]-3-(1-hydroxy-1-methyl-ethyl)-2-methyl-thiazolo[3,2-a]pyrimidin-5-one] | 247 nM | – | –
CCNC(=O)c1c(C)sc2nc(C(C)c3cccc(C(F)(F)F)c3F)cc(=O)n12 (stereo not drawn) [Example 22.1, N-ethyl-7-(1-(2-fluoro-3-(trifluoromethyl)phenyl)ethyl)-2-methyl-5-oxo-5H-thiazolo[3,2-a]pyrimidine-3-carboxamide] | – | 96.9% | –
CCNC(=O)c1c(C)sc2nc(Cc3cc(C)cc(C#N)c3F)cc(=O)n12 [compound 49, 7-[(3-cyano-2-fluoro-5-methyl-phenyl)methyl]-N-ethyl-2-methyl-5-oxo-thiazolo[3,2-a]pyrimidine-3-carboxamide] | 17500 nM | – | –
CCNC(=O)c1c(C)sc2nc(Cc3cccc(C4(F)CC4)c3F)cc(=O)n12 [compound 35, N-ethyl-7-[[2-fluoro-3-(1-fluorocyclopropyl)phenyl]methyl]-2-methyl-5-oxo-thiazolo[3,2-a]pyrimidine-3-carboxamide] | 3990 nM | – | –
Cc1sc2nc(Cn3nc(C(F)(F)F)cc3Cl)cc(=O)n2c1C(C)CO (stereo not drawn) [compound 222, 7-[[5-Chloro-3-(trifluoromethyl)pyrazol-1-yl]methyl]-3-(2-hydroxy-1-methyl-ethyl)-2-methyl-thiazolo[3,2-a]pyrimidin-5-one] | 2920 nM | – | –
Cc1sc2nc(Cn3nc(C(F)(F)F)cc3C3CC3)cc(=O)n2c1-c1cncnc1 [Example 15.29, 7-((5-cyclopropyl-3-(trifluoromethyl)-1H-pyrazol-1-yl)methyl)-2-methyl-3-(pyrimidin-5-yl)-5H-thiazolo[3,2-a]pyrimidin-5-one] | – | 135% | 7000 nM
CNC(=O)Cc1c(C)sc2nc(Cn3nc(Cl)cc3C(F)(F)F)cc(=O)n12 [compound 99, 2-[7-[[3-chloro-5-(trifluoromethyl)pyrazol-1-yl]methyl]-2-methyl-5-oxo-thiazolo[3,2-a]pyrimidin-3-yl]-N-methyl-acetamide] | 3690 nM | – | –
CCN(Cc1cc(=O)n2c(C(O)CCO)c(C)sc2n1)c1ccc(F)cc1 (stereo not drawn) [Example 12.1, 3-(1,3-dihydroxypropyl)-7-[(N-ethyl-4-fluoro-anilino)methyl]-2-methyl-thiazolo[3,2-a]pyrimidin-5-one] | – | 166% | 723 nM
Cc1sc2nc(COc3ccc(F)cc3)cc(=O)n2c1-c1cncnc1 [Example 4.5, 7-((4-fluorophenoxy)methyl)-2-methyl-3-(pyrimidin-5-yl)-5H-thiazolo[3,2-a]pyrimidin-5-one] | – | 42.2% | 5700 nM
Cc1sc2nc(Cn3nc(C(F)(F)F)c(F)c3C3CC3)cc(=O)n2c1C1CC1CO (stereo not drawn) [Example 15.10, 7-((5-cyclopropyl-4-fluoro-3-(trifluoromethyl)-1H-pyrazol-1-yl)methyl)-3-(trans-2-(hydroxymethyl)cyclopropyl)-2-methyl-5H-thiazolo[3,2-a]pyrimidin-5-one] | – | 133% | 3100 nM
